Reference: patent publication US20240317683A1, “METHODS OF TREATING MOOD DISORDERS” (priority 2020, published 2024)
Structures can show the parent of a compound that is named as a salt. Where two headings read alike, the source gives them in different places.

Tests used:
[1] = biological target: serotonin transporter (SERT) (Homo sapiens (Human), UniProt P31645); test: SERT fluorescent substrate uptake inhibition in transfected HEK293 cells; type: cell-based; settings: HEK293 cells expressing SERT
Experimental: SERT Uptake Inhibition. The ability of test compounds to block monoamine uptake by SERT was determined using the Neurotransmitter Transporter Uptake Assay Kit manufactured by Molecular Devices (Cat #R8173). Briefly, stably transfected HEK293 cells expressing SERT were grown and plated into 384-well plates at a concentration of 20,000 cells per well. Plates were then incubated for 16-20 h at 37° C. and 5% CO2. The medium was then aspirated and replaced with 25 μL of assay buffer (20 mM HEPES in HBSS, containing 0.1% BSA) containing the test compounds at the appropriate concentrations. Plates were then centrifuged at 300 rpm for 15 s and then incubated at 37° C. for 30 minutes. At this time, 25 μL of the proprietary fluorescent dye solution was added, the plates were incubated at 37°° C. for 60 minutes, and then fluorescence was quantified on a plate reader (excitation wavelength =440 nm, emission wavelength=520 nm). The proprietary dye solution contains a mixture of 1) a fluorescent dye (dye 1) that mimics the endogenous substrate of SERT and is thereby actively transported to the intracellular compartment in the absence of an inhibitor and 2) a masking dye that inhibits the fluorescence of dye 1 in the extracellular compartment. Therefore, the overall fluorescence of the system increases as the fluorescent dye is transported into the cells.

[2] = Metabolic stability in rat liver microsomes (RLM); type: in vitro ADME; settings: both sexes, pooled rat liver microsomes, pH 7.4, NADPH
Experimental: (§1) RLM Stability. Pooled RLM from adult male and female donors (Xenotech R1000) were used. Microsomal incubations were carried out in multi-well plates. […] Control incubations were performed by replacing the NADPH-cofactor system with PBS. Test compounds (1 μM, final solvent concentration 1.0%) were incubated with microsomes at 37° C. with constant shaking. Six time points over 60 minutes were analyzed, with 60 μL aliquots of the reaction mixture being drawn at each time point.

C57BL/6 mice = test: Head twitch response (HTR) in mice; type: in vivo; settings: for Average HTR: 20 mins; for maximal effect in HTR: SC, maximal over tested doses
Experimental: Animals. Adult male C57BL/6 mice, aged 8 weeks (body weight 20-25 g) were used in these experiments. Animals were housed under controlled temperatures and 12-hour light/dark cycles (lights on between 07:00-19:00 h), with ad libitum food and water. The protocol was approved by the Eurofins Advinus Institutional Animal Care and Use Committee. This study was carried out in strict accordance with the recommendations in the Guide for the Care and Use of Laboratory Animals of the National Institutes of Health. All efforts were made to minimize suffering.
Drugs and Drug administration. Compounds 3 and 4 were prepared as described above. All other compounds were commercially obtained. Test compounds were used as the hydrogen fumarate (1 and 2) or hydrochloride (DOI, 3, and 4) salts. Drugs were dissolved in a vehicle consisting of normal saline and administered subcutaneously (SC) in a volume of 10 ml/kg. Test compounds were administered at 5 doses per compound (0.1 to 100 mg/kg, as indicated, calculated based on the free base) using N=6 animals/group. […] For blockade experiments, MDL100907 (0.1 mg/kg, SC) was administered 10 mins prior to the test compound.
Procedure. Mice were administered one dose of a test drug (or vehicle) s.c. and immediately placed into a small open field for behavioral observation. Animals were observed continuously for 20 mins and the number of HTRs were counted by an observer blind to the treatment condition.
Statistical analysis. The data points shown in Table 11 are the mean ±standard error of the mean (SEM). Analysis was performed using GraphPad Prism 9.

CYP3A4 = CYP3A4 (Homo sapiens (Human), UniProt P08684); test: CYP inhibition in human liver microsomes, CYP3A4; type: in vitro ADME; settings: for inhibition at 10 min, 10 µM: both sexes, human, pooled human liver microsomes, pH 7.4, probe midazolam (2 μM), HLM, midazolam substrate, read-out: CYP 3A4 % Inhibition at 10 μM
5-HT2A = 5-HT2A (Homo sapiens (Human), UniProt P28223); test: FLIPR Ca2+ flux agonist assay, 5-HT2A; type: cell-based; settings: for EC50 / 5-HT2A % Act @ Max Dose: HEK293
Experimental: (§2) A solution of 250 mM probenecid in 1 mL FLIPR assay buffer was prepared fresh. This was combined with a fluorescent dye (Fluo-4 Direct™) to make a final assay concentration of 2.5 mM. […] The fluorescent dye was then added to the assay plate along with assay buffer to a final volume of 40 μL. The cell plate was incubated for 50 min at 37° C. and 5% CO2 and placed into the FLIPR Tetra along with the compound plate. 10 μL of references and compounds were then transferred from the compound plate into the cell plate and the fluorescent signal was read.

CYP2C9 = CYP2C9 (Homo sapiens (Human), UniProt P11712); test: CYP inhibition in human liver microsomes, CYP2C9; type: in vitro ADME; settings: for inhibition at 10 min, 10 µM: both sexes, human, pooled human liver microsomes, pH 7.4, probe diclofenac (5 μM), HLM, diclofenac substrate, read-out: CYP 2C9 % Inhibition at 10 μM
[3] = Metabolic stability in human liver microsomes (HLM); type: in vitro ADME; settings: both sexes, pooled human liver microsomes, pH 7.4, NADPH
Experimental: as §1, with “HLM” for “RLM”, “(Corning 452117)” for “(Xenotech R1000)”

5-HT2B = 5-HT2B (Homo sapiens (Human), UniProt P41595); test: FLIPR Ca2+ flux agonist assay, 5-HT2B; type: cell-based; settings: for 5-HT2B % Act @ Max Dose: Ca2+ flux, HEK293
Experimental: as §2

5-HT1A = 5-HT1A (Homo sapiens (Human), UniProt P08908); test: FLIPR Ca2+ flux agonist assay, 5-HT1A; type: cell-based
Experimental: as §2

Chain of CYP2C9 (P11712 whole entry, looked up): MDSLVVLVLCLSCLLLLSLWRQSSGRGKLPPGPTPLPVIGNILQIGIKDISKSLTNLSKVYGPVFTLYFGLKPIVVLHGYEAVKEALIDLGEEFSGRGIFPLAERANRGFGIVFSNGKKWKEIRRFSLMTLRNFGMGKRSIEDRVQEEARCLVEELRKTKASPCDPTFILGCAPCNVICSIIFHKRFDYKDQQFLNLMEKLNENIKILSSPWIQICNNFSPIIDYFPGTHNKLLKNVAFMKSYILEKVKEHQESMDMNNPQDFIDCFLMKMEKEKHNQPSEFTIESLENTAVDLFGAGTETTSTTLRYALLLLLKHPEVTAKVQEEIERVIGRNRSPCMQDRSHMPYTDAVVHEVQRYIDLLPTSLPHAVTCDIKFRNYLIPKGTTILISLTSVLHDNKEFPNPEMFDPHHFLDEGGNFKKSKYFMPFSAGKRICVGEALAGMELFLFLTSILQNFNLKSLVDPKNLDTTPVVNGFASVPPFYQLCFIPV
Chain of CYP3A4 (P08684 whole entry, looked up): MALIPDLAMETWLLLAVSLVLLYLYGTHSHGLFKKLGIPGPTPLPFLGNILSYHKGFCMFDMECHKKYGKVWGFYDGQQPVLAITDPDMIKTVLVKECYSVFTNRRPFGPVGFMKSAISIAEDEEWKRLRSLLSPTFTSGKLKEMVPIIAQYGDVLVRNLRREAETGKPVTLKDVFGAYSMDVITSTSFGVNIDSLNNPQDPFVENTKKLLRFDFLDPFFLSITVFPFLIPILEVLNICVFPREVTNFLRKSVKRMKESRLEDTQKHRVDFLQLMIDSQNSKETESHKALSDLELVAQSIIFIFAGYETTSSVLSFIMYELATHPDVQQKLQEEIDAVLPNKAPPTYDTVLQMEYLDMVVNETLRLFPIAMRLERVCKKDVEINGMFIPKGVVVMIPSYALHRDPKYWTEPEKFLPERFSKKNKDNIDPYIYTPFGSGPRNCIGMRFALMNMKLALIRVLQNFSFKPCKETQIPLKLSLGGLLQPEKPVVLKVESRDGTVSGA
Chain of 5-HT2B (P41595 whole entry, looked up, species assumed): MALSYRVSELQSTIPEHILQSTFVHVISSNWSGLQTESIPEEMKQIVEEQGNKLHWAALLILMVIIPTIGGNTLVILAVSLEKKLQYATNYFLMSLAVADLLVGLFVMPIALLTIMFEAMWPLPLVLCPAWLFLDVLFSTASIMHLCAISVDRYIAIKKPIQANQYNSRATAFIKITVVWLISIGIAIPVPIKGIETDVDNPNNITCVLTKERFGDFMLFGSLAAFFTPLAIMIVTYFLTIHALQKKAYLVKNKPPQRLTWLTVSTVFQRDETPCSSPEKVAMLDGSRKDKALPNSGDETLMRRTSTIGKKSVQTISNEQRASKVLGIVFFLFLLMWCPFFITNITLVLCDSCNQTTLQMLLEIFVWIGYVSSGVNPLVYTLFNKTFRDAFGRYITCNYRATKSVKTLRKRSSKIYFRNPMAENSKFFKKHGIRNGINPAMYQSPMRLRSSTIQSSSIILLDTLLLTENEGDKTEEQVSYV

Row | Structure (SMILES) | IC50 [1] | SERT % Inhibition @ Max Dose [1] | half-life at 1 μM [2] | microsomal CLint at 1 μM [2] | Average HTR (C57BL/6 mice; 1 mg/kg SC) | Average HTR (C57BL/6 mice; 10 mg/kg SC) | maximal effect in HTR (C57BL/6 mice) | EC50 (5-HT2A) | half-life at 1 μM [3] | microsomal CLint at 1 μM [3] | EC50 (5-HT2B) | 5-HT2B % Act @ Max Dose (5-HT2B) | EC50 (5-HT1A) | 5-HT1A % Act @ Max Dose (5-HT1A; Ca2+ flux, CHO cells) | IC50 (CYP3A4) | selectivity for 5-HT2A over 5-HT2B (in words) (5-HT2A) | 5-HT2A % Act @ Max Dose (5-HT2A) | IC50 (CYP2C9) | other results
1 | CCCN(CC)CCc1c[nH]c2ccccc12 [Compound 1, ethylpropyltryptamine] | 0.75 µM | 75.35% | 1.4 min | 970 µL/min/mg | 14.667 | 8.000 | 14.7 head twitches/20 min | 0.0305 µM | 21.7 min | 64.3 µL/min/mg | 0.0403 µM | 80.4% | 88.7 µM | 75.5% |  |  |  |  | Average HTR (C57BL/6 mice; 100 mg/kg SC): 4.500; inhibition at 10 min, 10 µM (CYP3A4): 2%; inhibition at 10 min, 10 µM (CYP2C9): 0.1%
2 | CCN(C)CCc1c[nH]c2ccccc12 [Compound 2, methylethyltryptamine] | 9.13 µM | 62.06% | 0.9 min | 1560 µL/min/mg | 3.667 | 2.500 | 6.00 head twitches/20 min |  | 126 min | 11.2 µL/min/mg |  | 22.5% | 59.5 µM | 73.6% | > 50 µM | highly selective | 36.2% | > 50 µM | Average HTR (C57BL/6 mice; 100 mg/kg SC): 0.500; inhibition at 10 min, 10 µM (CYP3A4): 0%; Emax (5-HT2A): 36.2%; inhibition at 10 min, 10 µM (CYP2C9): 0%
3 | CCCN(CC)CCc1c[nH]c2ccc(F)cc12 [Compound 3, N-ethyl-N-(2-(5-fluoro-1H-indol-3-yl)ethyl) propan-1-amine hydrochloride] |  |  | 3.2 min | 428 µL/min/mg | 29.333 | 26.333 | 29.33 head twitches/20 min | 0.00553 µM | 13 min | 106 µL/min/mg | 0.0154 µM | 64.64% | 19.6 µM | 88.34% | > 50 µM | little selectivity | 104.1% | > 50 µM | Average HTR (C57BL/6 mice; 0.1 mg/kg SC): 12.5
4 | CCN(C)CCc1c[nH]c2ccc(F)cc12 [Compound 4, N-ethyl-2-(5-fluoro-1H-indol-3-yl)-N-methylethan-1-amine hydrochloride] | 0.419 µM | 77.45% | 6.1 min | 229 µL/min/mg | 18.333 | 9.333 | 27.67 head twitches/20 min | 0.0206 µM | 47.9 min | 28.9 µL/min/mg | > 10 µM | 0.79% | 16.9 µM | 83.01% | > 50 µM | highly selective | 87.6% | > 50 µM | Average HTR (C57BL/6 mice; 0.1 mg/kg SC): 5.00; total number of HTR counts vs. vehicle (FIG. 2) (C57BL/6 mice; Cmp 4 alone, Dunnett's test, P<0.0001): significantly different from vehicle
5 | CN(C)CCc1c[nH]c2ccc(F)cc12 [Compound 5, 2-(5-fluoro-1H-indol-3-yl)-N,N-dimethylethan-1-amine hydrochloride] |  |  | 9.2 min | 151 µL/min/mg |  |  |  |  | 4.6 min | 300 µL/min/mg |  |  |  |  |  |  |  |  | 
6 | CCN(C)CCc1c[nH]c2cccc(O)c12 [Compound 6] | 3.27 µM | 84.02% | 50.1 min | 27.7 µL/min/mg |  |  |  | 0.0151 µM | > 145 min | < 9.6 µL/min/mg |  | 1.09% |  | 72.96% | > 50 µM |  | 103.0% | > 50 µM | EC50 (5-HT1A; Ca2+ flux, CHO cells, read-out: 5-HT1A EC50): 14.7 µM
7 | CN(C)CCc1c[nH]c2ccccc12 [DMT, N,N-dimethyltryptamine, reference compound] | 2.96 µM | 67.92% | 10.1 min | 137 µL/min/mg |  |  |  |  | 7 min |  |  | 10.4% |  | 68.1% |  |  | 93.4% |  | 
8 | CN(C)CCc1c[nH]c2cccc(O)c12 [Psilocin, psilocin, reference compound] | 2.04 µM | 88.15% | 75.6 min | 18.3 µL/min/mg |  |  |  |  | 110 min |  |  | 1.44% | > 3.16 µM | 0.720% |  |  |  |  | 
